Legend:
Type in all cases: biochemical
Conditions in all cases: 20 nM
PDE4A1A = target: T1, PDE4A1A (Homo sapiens, UniProt P27815); test: PDE4 inhibitory activity assay (FAM-cAMP enzymatic reaction), PDE4A1A
T1 construct: purchased BPS 60040
Method in brief: (§1)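 Read-out: fluorescence-based detection of FAM-cAMP turnover on a multilabel counter, with IC50 derived by fitting inhibition rates. The reaction ran 30 min at room temperature after a 15-min enzyme–compound preincubation, followed by stopping and 60 min further incubation.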

PDE4B1 = target: T2, PDE4B1 (Homo sapiens, UniProt Q07343); test: PDE4 inhibitory activity assay (FAM-cAMP enzymatic reaction), PDE4B1
T2 construct: purchased BPS 60041
Method in brief: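 Each isoform is incubated with test compound for 15 min at room temperature before FAM-cAMP substrate starts a 30-min reaction.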

PDE4D2 = PDE4D2 (Homo sapiens, UniProt Q08499); test: PDE4 inhibitory activity assay (FAM-cAMP enzymatic reaction), PDE4D2
Method in brief: as §1

Sequence of PDE4D2 (Q08499 303-809): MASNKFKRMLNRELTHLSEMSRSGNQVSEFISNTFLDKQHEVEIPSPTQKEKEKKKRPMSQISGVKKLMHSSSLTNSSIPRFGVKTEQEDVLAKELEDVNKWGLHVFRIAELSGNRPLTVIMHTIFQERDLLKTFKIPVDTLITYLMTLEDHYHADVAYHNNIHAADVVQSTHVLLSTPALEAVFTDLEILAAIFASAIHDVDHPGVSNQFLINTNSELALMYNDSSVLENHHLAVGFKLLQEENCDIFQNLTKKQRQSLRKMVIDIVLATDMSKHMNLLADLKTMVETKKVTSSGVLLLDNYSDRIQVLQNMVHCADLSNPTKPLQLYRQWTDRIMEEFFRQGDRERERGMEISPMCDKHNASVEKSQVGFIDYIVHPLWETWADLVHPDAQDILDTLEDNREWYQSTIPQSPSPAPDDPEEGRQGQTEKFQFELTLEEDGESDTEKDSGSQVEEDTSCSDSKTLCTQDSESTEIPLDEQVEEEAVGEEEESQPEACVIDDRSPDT
T2 sequence (Q07343 whole entry): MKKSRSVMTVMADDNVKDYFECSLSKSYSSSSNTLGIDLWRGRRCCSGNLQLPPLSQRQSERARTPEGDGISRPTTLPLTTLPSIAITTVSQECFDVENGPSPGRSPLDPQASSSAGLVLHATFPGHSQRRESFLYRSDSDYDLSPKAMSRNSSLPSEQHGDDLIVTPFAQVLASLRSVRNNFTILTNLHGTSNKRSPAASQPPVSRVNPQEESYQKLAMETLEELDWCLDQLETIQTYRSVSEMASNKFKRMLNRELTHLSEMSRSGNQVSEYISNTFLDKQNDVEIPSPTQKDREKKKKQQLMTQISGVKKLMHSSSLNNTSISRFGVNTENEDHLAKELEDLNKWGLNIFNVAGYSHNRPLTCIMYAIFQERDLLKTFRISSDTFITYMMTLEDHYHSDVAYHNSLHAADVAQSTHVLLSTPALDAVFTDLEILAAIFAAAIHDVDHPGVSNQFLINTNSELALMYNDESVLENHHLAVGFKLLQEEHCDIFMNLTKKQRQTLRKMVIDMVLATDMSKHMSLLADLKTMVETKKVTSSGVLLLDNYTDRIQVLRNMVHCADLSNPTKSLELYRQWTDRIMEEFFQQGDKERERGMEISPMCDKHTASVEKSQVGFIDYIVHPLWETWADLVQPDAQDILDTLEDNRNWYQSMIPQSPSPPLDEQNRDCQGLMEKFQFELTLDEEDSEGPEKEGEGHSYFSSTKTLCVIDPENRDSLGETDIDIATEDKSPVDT
T1 sequence (P27815 1-647 isoform P27815-4): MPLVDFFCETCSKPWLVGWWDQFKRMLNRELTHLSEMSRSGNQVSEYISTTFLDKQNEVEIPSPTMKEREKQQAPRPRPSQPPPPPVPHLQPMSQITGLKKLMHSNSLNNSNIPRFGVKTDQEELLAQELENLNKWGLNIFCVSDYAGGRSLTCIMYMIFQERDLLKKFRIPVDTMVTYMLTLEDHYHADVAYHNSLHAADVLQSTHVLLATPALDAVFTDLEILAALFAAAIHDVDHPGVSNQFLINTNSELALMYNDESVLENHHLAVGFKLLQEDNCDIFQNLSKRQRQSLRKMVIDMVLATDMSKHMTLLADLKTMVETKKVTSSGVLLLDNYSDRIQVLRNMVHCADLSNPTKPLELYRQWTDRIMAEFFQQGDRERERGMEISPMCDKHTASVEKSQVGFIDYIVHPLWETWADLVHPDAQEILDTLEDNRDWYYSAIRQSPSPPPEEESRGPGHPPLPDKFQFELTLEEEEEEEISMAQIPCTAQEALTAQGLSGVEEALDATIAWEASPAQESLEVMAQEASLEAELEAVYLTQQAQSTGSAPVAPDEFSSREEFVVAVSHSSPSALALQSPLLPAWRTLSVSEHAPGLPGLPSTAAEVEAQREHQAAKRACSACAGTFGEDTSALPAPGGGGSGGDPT

SMILES	PDE4 A1 inhibitory effect at 20 nM (PDE4A1A)	PDE4 B1 inhibitory effect at 20 nM (PDE4B1)	PDE4 D2 inhibitory effect at 20 nM (PDE4D2)
CCOc1nc([C@H](CS(C)(=O)=O)n2c(=O)[nH]c3cc(-c4ccccn4)ccc32)ccc1OC [Ex. 195, (R)-1-(1-(6-ethoxy-5-methoxypyridin-2-yl)-2-(methylsulfonyl)ethyl)-5-(pyridin-2-yl)-1H-benzo[d]imidazol-2(3H)-one]	−	−	−
CCOc1nc([C@@H](CS(C)(=O)=O)n2c(=O)n(C)c3cc(-c4cc(F)ccc4F)ccc32)ccc1OC [Ex. 161, (S)-5-(2,5-difluorophenyl)-1-(1-(6-ethoxy-5-methoxypyridin-2-yl)-2-(methylsulfonyl)ethyl)-3-methyl-1H-benzo[d]imidazol-2(3H)-one]	+	+	+
CCOc1nc([C@@H](CS(C)(=O)=O)n2c(=O)n(CCOC)c3cc(-c4ccccn4)ccc32)ccc1OC [Ex. 198, (S)-1-(1-(6-ethoxy-5-methoxypyridin-2-yl)-2-(methylsulfonyl)ethyl)-3-(2-methoxyethyl)-5-(pyridin-2-yl)-1H-benzo[d]imidazol-2(3H)-one]	+	+	+
CCOc1nc([C@@H](CS(C)(=O)=O)n2c(=O)n(C)c3cc(-c4c(C)cccc4C)cnc32)ccc1OC [Ex. 106, (S)-6-(2,6-dimethylphenyl)-3-(1-(6-ethoxy-5-methoxypyridin-2-yl)-2-(methylsulfonyl)ethyl)-1-methyl-1H-imidazo[4,5-b]pyridin-2(3H)-one]	+	+	+
CCOc1nc([C@@H](CS(C)(=O)=O)n2c(=O)[nH]c3cc(-c4c(C)cccc4C)ccc32)ccc1OC [Ex. 168, (S)-5-(2,6-dimethylphenyl)-1-(1-(6-ethoxy-5-methoxypyridin-2-yl)-2-(methylsulfonyl)ethyl)-1H-benzo[d]imidazol-2(3H)-one]	+	+	+

The next lines start with the values.

PDE4 A1 inhibitory effect at 20 nM (PDE4A1A)	PDE4 B1 inhibitory effect at 20 nM (PDE4B1)	PDE4 D2 inhibitory effect at 20 nM (PDE4D2)	SMILES
+	+	+	CCOc1nc([C@@H](CS(C)(=O)=O)n2c(=O)[nH]c3c(C)c(-c4cc(F)ccc4OC)cnc32)ccc1OC [Ex. 44, (S)-6-(5-fluoro-2-methoxyphenyl)-3-(1-(6-ethoxy-5-methoxypyridin-2-yl)-2-(methylsulfonyl)ethyl)-7-methyl-1H-imidazo[4,5-b]pyridin-2(3H)-one]
+	+	+	CCOc1nc([C@@H](CS(C)(=O)=O)n2c(=O)n(CC)c3c(C)c(-c4ccc(F)cc4)cnc32)ccc1OC [Ex. 48, (S)-3-(1-(6-ethoxy-5-methoxypyridin-2-yl)-2-(methylsulfonyl)ethyl)-1-ethyl-6-(4-fluorophenyl)-7-methyl-1H-imidazo[4,5-b]pyridin-2(3H)-one]
+	+	+	CCOc1nc([C@@H](CS(C)(=O)=O)n2c(=O)n(C)c3cc(-c4cc(F)ccc4F)cnc32)ccc1OC [Ex. 93, (S)-6-(2,5-difluorophenyl)-3-(1-(6-ethoxy-5-methoxypyridin-2-yl)-2-(methylsulfonyl)ethyl)-1-methyl-1H-imidazo[4,5-b]pyridin-2(3H)-one]
+	+	+	CCOc1nc([C@@H](CS(C)(=O)=O)n2c(=O)[nH]c3c(C)c(-c4ccc(F)cc4F)cnc32)ccc1OC [Ex. 28, (S)-6-(2,4-difluorophenyl)-3-(1-(6-ethoxy-5-methoxypyridin-2-yl)-2-(methylsulfonyl)ethyl)-7-methyl-1H-imidazo[4,5-b]pyridin-2(3H)-one]
